Results: ChEMBL document CHEMBL5537179, “Combination Therapy and Dual-Target Inhibitors Based on LSD1: New Emerging Tools in Cancer Therapy” (J Med Chem, 2024)
Each block holds one compound with its values, some of them ahead of it.

Key:
[1] = Half life in human plasma; type: ADME, cell-free
[2] = target: T1, Bromodomain-containing protein 4 (Homo sapiens, UniProt O60885); assay: Inhibition of human BRD4 BD2 by TR-FRET assay
[3] = target: T1, Bromodomain-containing protein 4; assay: Inhibition of human BRD4 BD1 by TR-FRET assay
[4] = Cmax in CD-1 mouse at 2 mg/kg, iv; type: ADME, organism-based; settings: in vivo
[5] = Half life in CD-1 mouse at 2 mg/kg, iv; type: ADME, organism-based; settings: in vivo
[6] = Oral bioavailability in mouse; type: ADME, organism-based; settings: in vivo
Histone deacetylase 1 [7] = target: T2, Histone deacetylase 1 (Homo sapiens, UniProt Q13547); assay: Inhibition of human recombinant HDAC1 using fluorogenic HDAC substrate preincubated for 30 mins followed by substrate addition and measured after 15 mins by fluorescence based assay
Tubulin = assay: Inhibition of tubulin polymerization (unknown origin) by fluorescence based assay; type: protein-complex assay, Homo sapiens
[8] = target: T3, Lysine-specific histone demethylase 1A (Homo sapiens, UniProt O60341); assay: Inhibition of human LSD1 expressed in Escherichia coli Rosetta (DE3) cells using H3K4me2 peptide as substrate and measured after 1 hr by fluorescence based analysis
[9] = target: T3, Lysine-specific histone demethylase 1A; assay: Inhibition of LSD1 (unknown origin) at 10 uM relative to control
[10] = target: Lysine-specific demethylase 6A (Homo sapiens, UniProt O15550); assay: Inhibition of human UTX using Biotin-KAPRKQLATKAARK(me3)SAPATGG as substrate by MALDI-TOF analysis
[11] = target: T3, Lysine-specific histone demethylase 1A
Leukemia cell = assay: Antitumor activity against human Leukemia cells assessed as reduction in cell growth incubated for 72 hrs by MTT assay; type: functional, cell-based
[12] = Half life in BALB/c mouse plasma at 5 mg/kg, ip measured after 24 hrs by LC-MS/MS analysis; type: ADME, organism-based
[13] = Oral bioavailability in BALB/c mouse at 5 mg/kg measured after 24 hrs by LC-MS/MS analysis; type: ADME, organism-based; settings: in vivo
Histone deacetylase 1 [14] = target: T2, Histone deacetylase 1; assay: Inhibition of HDAC1 (unknown origin)
Spermine oxidase = Spermine oxidase (Homo sapiens, UniProt Q9NWM0); assay: Inhibition of SMOX (unknown origin) using spermine as substrate preincubated for 1 hr followed by substrate addition and measured after 20 mins by luminometer analysis
[15] = Tmax in human at 5 mg/kg, po; type: ADME, organism-based; settings: in vivo
Kasumi 1 = assay: cells; settings: Homo sapiens, Kasumi 1, 168 h
MV4-11 = assay: cells; settings: Homo sapiens, MV4-11, 72 h
[16] = Cmax in human at 5 mg/kg, po; type: ADME, organism-based; settings: in vivo
in vitro = settings: human, THP-1 cells
[17] = target: T3, Lysine-specific histone demethylase 1A; assay: Inhibition of human LSD1 by luminescence assay
DCN1-like protein 1 = DCN1-like protein 1 (Homo sapiens, UniProt Q96GG9); assay: Inhibition of DCN1 (unknown origin) by TR-FRET analysis
Chain of DCN1-like protein 1 (Q96GG9 whole entry): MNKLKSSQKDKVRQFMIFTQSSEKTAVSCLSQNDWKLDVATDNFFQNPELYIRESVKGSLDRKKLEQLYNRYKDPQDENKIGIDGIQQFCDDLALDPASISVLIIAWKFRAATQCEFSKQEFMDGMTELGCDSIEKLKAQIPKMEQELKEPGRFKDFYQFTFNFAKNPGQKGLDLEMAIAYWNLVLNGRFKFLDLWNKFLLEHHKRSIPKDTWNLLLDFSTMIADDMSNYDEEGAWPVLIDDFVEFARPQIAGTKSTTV

T2 sequence (Q13547 whole entry): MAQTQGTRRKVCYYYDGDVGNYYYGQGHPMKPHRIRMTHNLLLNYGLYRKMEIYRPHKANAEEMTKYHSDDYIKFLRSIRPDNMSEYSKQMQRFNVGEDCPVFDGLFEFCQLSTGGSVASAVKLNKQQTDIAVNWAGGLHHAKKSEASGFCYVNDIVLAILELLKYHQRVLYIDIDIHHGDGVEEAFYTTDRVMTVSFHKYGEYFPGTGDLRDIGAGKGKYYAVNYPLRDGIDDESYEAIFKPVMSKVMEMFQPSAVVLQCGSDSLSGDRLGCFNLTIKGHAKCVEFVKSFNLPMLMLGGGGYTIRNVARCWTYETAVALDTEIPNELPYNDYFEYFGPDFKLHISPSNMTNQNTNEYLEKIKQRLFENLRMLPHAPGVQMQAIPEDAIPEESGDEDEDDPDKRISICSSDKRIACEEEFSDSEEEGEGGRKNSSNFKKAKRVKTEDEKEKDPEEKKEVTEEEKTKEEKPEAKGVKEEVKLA
Chain of Spermine oxidase (Q9NWM0 whole entry): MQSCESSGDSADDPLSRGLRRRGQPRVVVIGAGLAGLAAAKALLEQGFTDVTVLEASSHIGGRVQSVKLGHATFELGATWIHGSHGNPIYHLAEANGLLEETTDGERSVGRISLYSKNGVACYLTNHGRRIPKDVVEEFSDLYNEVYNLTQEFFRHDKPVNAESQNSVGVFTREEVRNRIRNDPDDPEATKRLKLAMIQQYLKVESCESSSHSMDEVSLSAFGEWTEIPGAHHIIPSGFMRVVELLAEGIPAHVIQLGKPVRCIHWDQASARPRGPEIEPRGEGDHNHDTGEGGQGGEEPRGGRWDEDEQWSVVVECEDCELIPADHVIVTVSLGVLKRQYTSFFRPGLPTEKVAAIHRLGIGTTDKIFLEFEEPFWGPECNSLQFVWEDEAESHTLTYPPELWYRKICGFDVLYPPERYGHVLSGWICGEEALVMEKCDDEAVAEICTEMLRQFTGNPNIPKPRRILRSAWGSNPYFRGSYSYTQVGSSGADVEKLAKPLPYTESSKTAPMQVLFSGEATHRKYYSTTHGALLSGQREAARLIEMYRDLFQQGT
Chain of Lysine-specific demethylase 6A (O15550 whole entry): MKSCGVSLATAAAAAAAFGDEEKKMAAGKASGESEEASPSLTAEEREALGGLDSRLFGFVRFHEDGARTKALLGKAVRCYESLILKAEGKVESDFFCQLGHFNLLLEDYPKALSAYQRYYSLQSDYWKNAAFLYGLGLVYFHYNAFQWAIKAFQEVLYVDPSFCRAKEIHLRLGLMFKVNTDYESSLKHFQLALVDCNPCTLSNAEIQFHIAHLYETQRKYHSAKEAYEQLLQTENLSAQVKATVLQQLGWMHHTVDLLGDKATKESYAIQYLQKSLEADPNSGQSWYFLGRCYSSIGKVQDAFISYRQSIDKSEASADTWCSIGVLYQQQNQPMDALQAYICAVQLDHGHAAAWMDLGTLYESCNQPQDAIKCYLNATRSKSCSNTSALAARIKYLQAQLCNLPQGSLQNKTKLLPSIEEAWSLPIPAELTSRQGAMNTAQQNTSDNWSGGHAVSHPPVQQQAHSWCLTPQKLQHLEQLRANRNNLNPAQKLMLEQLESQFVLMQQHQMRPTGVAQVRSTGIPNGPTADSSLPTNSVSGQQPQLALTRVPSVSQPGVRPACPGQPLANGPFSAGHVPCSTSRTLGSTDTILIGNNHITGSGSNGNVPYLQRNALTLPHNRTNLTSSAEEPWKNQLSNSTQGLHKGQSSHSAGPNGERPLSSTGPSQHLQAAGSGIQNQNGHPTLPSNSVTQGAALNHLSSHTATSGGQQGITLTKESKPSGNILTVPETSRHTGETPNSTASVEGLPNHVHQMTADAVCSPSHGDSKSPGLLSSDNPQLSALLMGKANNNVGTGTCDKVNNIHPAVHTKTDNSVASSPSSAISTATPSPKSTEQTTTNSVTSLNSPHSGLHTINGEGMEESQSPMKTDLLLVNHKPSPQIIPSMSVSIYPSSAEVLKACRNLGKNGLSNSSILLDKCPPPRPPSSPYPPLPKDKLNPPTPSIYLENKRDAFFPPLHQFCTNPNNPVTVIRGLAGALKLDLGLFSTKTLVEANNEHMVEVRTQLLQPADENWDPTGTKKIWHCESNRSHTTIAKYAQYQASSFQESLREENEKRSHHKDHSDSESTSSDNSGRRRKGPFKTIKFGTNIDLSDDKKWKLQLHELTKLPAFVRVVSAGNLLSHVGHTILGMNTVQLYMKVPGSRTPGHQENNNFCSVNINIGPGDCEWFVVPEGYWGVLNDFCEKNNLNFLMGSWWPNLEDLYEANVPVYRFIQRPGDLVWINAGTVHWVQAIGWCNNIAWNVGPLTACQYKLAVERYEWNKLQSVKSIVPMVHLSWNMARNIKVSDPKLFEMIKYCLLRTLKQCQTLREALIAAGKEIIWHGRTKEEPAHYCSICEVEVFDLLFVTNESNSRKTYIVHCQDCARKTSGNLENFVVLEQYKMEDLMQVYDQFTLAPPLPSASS

SMILES: C/C(=N\NC(=O)c1cccc(S(=O)(=O)N2CCOCC2)c1)c1cc(Cl)ccc1O
IC50 [2]: 33 nM | IC50 [3]: 77 nM

SMILES: O=C(O)c1ccc(CN2CCC(CN[C@@H]3C[C@H]3c3ccccc3)CC2)cc1 [GSK2879552]
Cmax [4]: 720 ng/mL | half-life [5]: 114 min | bioavailability [6]: 59.2%

SMILES: O=S1(=O)CCCN(S(=O)(=O)c2ccc(-c3cnc(C4CC4)o3)cc2)c2ccccc21
IC50 (Tubulin): 3.1 µM | IC50 [8]: 2800 nM

SMILES: NC1CC1c1ccc(NC(=O)c2ccc(O)c3ncccc23)cc1 (stereo not given)
IC50 [10]: 27 µM | IC50 [11]: < 1000 nM

SMILES: N[C@H]1CC[C@H](N[C@@H]2C[C@H]2c2ccccc2)CC1
EC50 (Leukemia cell): 0.1 nM | half-life [12]: 600 min | bioavailability [13]: 77%

SMILES: COC(=O)/C=C/c1ccc(CN(C(=O)OC(C)(C)C)C2CC2c2ccc(F)cc2)cc1 (stereo not given)
IC50 [17]: 50 nM

SMILES: CN(C)CCn1nnnc1Sc1ccnc2nc(SCc3ccc(Br)cc3)nn12
IC50 (DCN1-like protein 1): 14.8 nM

The next lines start with the values.

half-life [1]: 1320 min
SMILES: Nc1nnc(CN[C@@H]2C[C@H]2c2ccc(OCc3ccccc3)cc2)o1

IC50 (Histone deacetylase 1 [7]): > 30 µM
SMILES: NC1CC1c1ccc(NC(=O)CCCc2ccccc2)cc1 (stereo not given)

inhibition [9]: 52.1%
SMILES: Nc1n[nH]c(NCc2ccccc2Oc2ccc(-c3ccccc3)cc2)n1

IC50 (Histone deacetylase 1 [14]): 300 nM | IC50 [11]: 300 nM
SMILES: Nc1ccccc1NC(=O)c1ccc(CCCC(=O)Nc2ccc(C3CC3N)cc2)cc1 (stereo not given)

IC50 (Spermine oxidase): 148 µM
SMILES: C=C/C=C/c1cccc(Oc2cccc(Cl)c2CNc2nc(N)n[nH]2)c1/C=C/C=C

Tmax [15]: 4 h | IC50 (Kasumi 1): 2 nM | IC50 (MV4-11): 1400 nM | Cmax [16]: 19 ng/mL | IC50 at 72 h (in vitro): 7 nM
SMILES: COc1ccc(-c2c(-c3ccc(C#N)c(F)c3)nc(N3CCC(N)CC3)n(C)c2=O)cc1F.O=S(=O)(O)c1ccccc1 [PULRODEMSTAT BESILATE]
